This note sets out measurements from patent US20210008101A1, “METHODS AND COMPOSITIONS FOR PREVENTING, REDUCING OR ERADICATING TOXICITY CAUSED BY ACETAMINOPHEN (APAP)” (SINEW PHARMA INC., priority 2018, published 2021).

Holding throughout (assay type): in vivo, Sprague-Dawley rats
Data set [1] has as its system APAP-induced nephrotoxicity. The data set is described as follows: Serum creatinine and BUN (kidney function) in APAP-induced toxicity animal model. The note with it: SD-rats, mean ± SD. As for the experimental part: (§1) Male Sprague-Dawley rats (weighing 220-300 g) were obtained from Professor Dr. Gonzalez of the American Country Health Research Institute (USA), introduces three male and four female mice, pairs voluntarily reproduces. All of the experiments were performed in adherence with the National Institutes of Health Guidelines for the treatment of animals. All of the mice were maintained in a room with air/humidity control and a 12-h light/dark cycle, and allowed access to food and water ad libitum throughout the experiment.
(§2) In the single dose study of the antidote effect of APAP metabolic enzyme inhibition on APAP-induced nephrotoxicity, rats were randomly divided into 3 treatment groups: (1) a normal control group (NC, n=5), in which normal SD-rats were orally administrated with saline four times a day for multiple doses at a volume of 1 mL/kg; (2) an APAP control group (APAP, n=5), in which normal SD-rats were orally administrated with APAP in saline at dose of 1 g/kg (1,000 mg/kg) for single oral dose administration; (3) an positive control group (NAC, n=5), in which normal SD-rats were orally administrated with APAP and N-acetylcysteine (NAC) in saline at dose of 1 g/kg and 140 mg/kg for single oral dose administration; (4) the various selected antidote test groups (each groups, n=5), in which normal SD-rats were orally administered with APAP in saline at dose of 1,000 mg/kg and e various antidote agents each at dose of less than or equivalent to 200 mg per 60 kg person body weight of single oral dose administration. In addition, according to US FDA Guidance for Industry “Estimating the Maximum Safe Starting Dose in Initial Clinical Trials for Therapeutics in Adult Healthy Volunteers”, the HED (human equivalent dose) for a human adult of 60 kg can be calculated as follows: HED=animal dose (1,000 mg/kg in rats)×human body weight (60 kg)/6.2=9.677g (about 10 g).
(§3) At the end of the treatment, the animals were sacrificed under diethyl ether anesthesia. Blood was collected from the hearts of the mice into heparin tubes, and plasma was separated by centrifugation at 13,000×g for 5 min at 4° C. Aliquots of plasma were transferred to Eppendorf tubes and stored at −80° C. until analysis.
Serum creatinine and BUN levels were measured using the commercial kits (BEN) (Biochemical Enterprise, Milano, Italy) CR280 and BK151 in an automatic biochemical analyzer (ChemWell, Palm City, Fla.) at 340 nm and 510 nm, respectively.
(§4) All data are represented in mean ± standard deviation (SD) and the results are calculated using ANOVA to determine the significance. Statistical Package of the Social Science program (Version 13, SPSS Inc.) is used for calculations followed by post hoc test to examine the least significant difference for multiple comparisons so as to confirm the significant differences between groups and the average difference between groups was significant p<0.05.

The test system of data set [2] is APAP-induced hepatotoxicity. The data set is described as follows: Plasma AST and ALT determination in APAP-induced toxicity animal model. The note with it: SD-rats, mean ± SD. On the procedure: as §1
In the single dose study […], rats were randomly divided into 3 treatment groups: (1) a normal control group (NC, n=5), in which normal SD-rats were orally administrated with saline four times a day for multiple doses at a volume of 1 mL/kg; (2) an APAP control group (APAP, n=5), in which normal SD-rats were orally administrated with APAP in saline at dose of 1 g/kg (1,000 mg/kg) for single oral dose administration; (3) an positive control group (NAC, n=5), in which normal SD-rats were orally administrated with APAP and N-acetylcysteine (NAC) in saline at dose of 1 g/kg and 140 mg/kg for single oral dose administration; (4) the various selected antidote test groups (each groups, n=5), in which normal SD-rats were orally administered with APAP in saline at dose of 1,000 mg/kg and e various antidote agents each at dose of less than or equivalent to 200 mg per 60 kg person body weight of single oral dose administration. In addition, according to US FDA Guidance for Industry “Estimating the Maximum Safe Starting Dose in Initial Clinical Trials for Therapeutics in Adult Healthy Volunteers”, the HED (human equivalent dose) for a human adult of 60 kg can be calculated as follows: HED=animal dose (1,000 mg/kg in rats)×human body weight (60 kg)/6.2=9.677g (about 10 g).
as §3
Plasma enzyme activities (aspartate aminotransferase [AST] and alanine aminotransferase [ALT]) were determined at 37° C. by using a Synchron LXi 725 (Beckman Instruments, Palo Alto, Calif. USA) with kits provided by the manufacturer.
as §4

Data set [3] deals with toxicity (nephrotoxicity and hepatotoxicity) caused by APAP. The data set is described as follows: Overall antidote activity against toxicity caused by APAP (animal model). The note with it: rats given APAP 1,000 mg/kg; summary of Table 1. As for the experimental part: as §1, §2
The subject of data set [4] is APAP-induced renal lesions. Description: Histological examination of kidney (H&E) in APAP-induced toxicity animal model. The note with it: H&E stained kidney section, 200×. On the procedure:
as §1, §2
The kidney groups were fixed in 10% neutral formalin for 48-72 h. Then, tissues were trimmed and processed for a routine histopathological examination. […]

The mark [5] stands for this setting: APAP 1,000 mg/kg single oral dose plus antidote single oral dose, n=5.
Where [6] appears, read: APAP 1,000 mg/kg oral plus antidote at high dose.
The mark [7] stands for this setting: APAP 1,000 mg/kg oral plus antidote at low dose.
[8] abbreviates: APAP alone 1,000 mg/kg single oral dose (toxicity control group), n=5.
[9] abbreviates: APAP alone 1,000 mg/kg single oral dose (toxicity control group), n=5, listed as AAP.

Entries after “also recorded” stand apart in the source; their conditions may differ.

Turning to `OC[C@@H](O)[C@@H](O)[C@H](O)[C@H](O)CO` [Mannitol], in data set [1] (setting [5]), the “BUN (nephrotoxicity)” value was 41.0 ± 2.6 mg/dL and the “Creatinine (nephrotoxicity)” value was determined as 0.56 ± 0.13 mg/dL. Also, in data set [2] (setting [5]), the “ALT (hepatotoxicity)” value worked out at 91.9 ± 8.4 IU/L and the “AST (hepatotoxicity)” value was 365.7 ± 35.5 IU/L. Besides, the “Antidote activity against toxicity (nephrotoxicity and hepatotoxicity) caused by APAP” value (shortened to “Antidote activity against toxicity”) in data set [3] is reported as “effective in reducing or eradicating toxicity”.
With `O=c1c(O)c(-c2ccc(O)cc2)oc2cc(O)cc(O)c12` [Kaempferol], in data set [1] (setting [6]), the “BUN (nephrotoxicity)” value stood at 31.5 ± 7.6 mg/dL and the “Creatinine (nephrotoxicity)” value stood at 0.38 ± 0.09 mg/dL. Further, in data set [1] (setting [7]), the “BUN (nephrotoxicity)” value is 58.8 ± 7.0 mg/dL and the “Creatinine (nephrotoxicity)” value is given as 0.70 ± 0.09 mg/dL. For the same compound, in data set [2] (setting [6]), the “ALT (hepatotoxicity)” value was 82.2 ± 17.6 IU/L and the “AST (hepatotoxicity)” value amounted to 332.2 ± 27.1 IU/L. Further, in data set [2] (setting [7]), the “ALT (hepatotoxicity)” value was found to be 179.4 ± 12.9 IU/L and the “AST (hepatotoxicity)” value stood at 395.6 ± 32.6 IU/L. Also, the “Antidote activity against toxicity” value in data set [3] was “effective in reducing or eradicating toxicity”.
Turning to `O=c1cc(-c2ccc(O)c(O)c2)oc2cc(O)cc(O)c12` [Luteolin], the “BUN (nephrotoxicity)” value in data set [1] (setting [6]) came to 23.7 ± 4.4 mg/dL; in data set [1] (setting [7]), 31.5 ± 7.3 mg/dL. Also, the “Creatinine (nephrotoxicity)” value in data set [1] (setting [6]) was 0.25 ± 0.07 mg/dL; in data set [1] (setting [7]), 0.43 ± 0.08 mg/dL. In addition, the “ALT (hepatotoxicity)” value in data set [2] (setting [6]) came out at 57.1 ± 14.7 IU/L; in data set [2] (setting [7]) it was 78.9 ± 15.7 IU/L. Moreover, the “AST (hepatotoxicity)” value is listed as 223.8 ± 15.5 IU/L in data set [2] (setting [6]) and 279.1 ± 35.1 IU/L in data set [2] (setting [7]). For the same compound, in data set [3], the “Antidote activity against toxicity” value is “effective in reducing or eradicating toxicity”.
For the compound `CC(=O)Nc1ccc(O)cc1` [APAP, N-acetyl-para-aminophenol], the “BUN (nephrotoxicity)” value in data set [1] (setting [8]) and in data set [1] (setting [9]) was 87.8 ± 6.6 mg/dL throughout. Also, the “Creatinine (nephrotoxicity)” value in data set [1] (setting [8]) and in data set [1] (setting [9]) was 1.13 ± 0.17 mg/dL each time. Moreover, the “ALT (hepatotoxicity)” value in data set [2] (setting [8]) turned out to be 382.3±32.1 IU/L; in data set [2] (setting [9]), 382.3 ± 32.1 IU/L. Besides, the results for the “AST (hepatotoxicity)” value in data set [2] (setting [8]) and in data set [2] (setting [9]) were 591.0±59.2 IU/L and 591.0 ± 59.2 IU/L, respectively. The “Kidney histology (renal lesions), FIG. 1” value was “severe renal lesions including necrosis, congestion and extravasation of red blood cells” in data set [4] (acetaminophen 1 g/kg alone); “Severe necrosis, congestion and extravasation of red blood cells were seen” in data set [4] (acetaminophen 1 g/kg alone, listed as acetaminophen).
Turning to `O=C1C[C@@H](c2ccc(O)cc2)Oc2cc(O)cc(O)c21` [Nariagenin], in data set [1] (setting [5]), the “BUN (nephrotoxicity)” value is on record as 36.0 ± 7.8 mg/dL and the “Creatinine (nephrotoxicity)” value is 0.32 ± 0.03 mg/dL. Also, in data set [2] (setting [5]), the “ALT (hepatotoxicity)” value worked out at 63.1 ± 11.6 IU/L and the “AST (hepatotoxicity)” value came out at 231.1 ± 39.0 IU/L. Also, the “Antidote activity against toxicity” value in data set [3] is “effective in reducing or eradicating toxicity”.
`OC[C@H]1O[C@H](O[C@]2(CCl)O[C@H](CCl)[C@@H](O)[C@@H]2O)[C@H](O)[C@@H](O)[C@H]1Cl` [Sucralose]: in data set [1] (setting [5]), the “BUN (nephrotoxicity)” value amounted to 33.6 ± 2.7 mg/dL and the “Creatinine (nephrotoxicity)” value is 0.40 ± 0.15 mg/dL. Further, in data set [2] (setting [5]), the “ALT (hepatotoxicity)” value was 82.8 ± 8.4 IU/L and the “AST (hepatotoxicity)” value was 288.4 ± 33.8 IU/L. In addition, the “Antidote activity against toxicity” value in data set [3] is given as “effective in reducing or eradicating toxicity”.
Take `CC(=O)N[C@@H](CS)C(=O)O` [NAC, N-acetylcysteine, reference compound]: in data set [1] (setting [5]), the “BUN (nephrotoxicity)” value is 48.4 ± 9.8 mg/dL and the “Creatinine (nephrotoxicity)” value is on record as 0.64 ± 0.05 mg/dL. In addition, in data set [2] (setting [5]), the “ALT (hepatotoxicity)” value amounted to 206.7 ± 20.1 IU/L and the “AST (hepatotoxicity)” value worked out at 423.7 ± 38.1 IU/L. In addition, the “Kidney histology (renal lesions), FIG. 1” value in data set [4] (acetaminophen 1 g/kg plus antidote) was “Mild to moderate degenerations were seen; also recorded: reduced to mild to moderate level”.
